The target in this experiment is T1, SETD2 (1347-1711) (Homo sapiens, UniProt Q9BYW2).
T1 sequence (Q9BYW2 1347-1711): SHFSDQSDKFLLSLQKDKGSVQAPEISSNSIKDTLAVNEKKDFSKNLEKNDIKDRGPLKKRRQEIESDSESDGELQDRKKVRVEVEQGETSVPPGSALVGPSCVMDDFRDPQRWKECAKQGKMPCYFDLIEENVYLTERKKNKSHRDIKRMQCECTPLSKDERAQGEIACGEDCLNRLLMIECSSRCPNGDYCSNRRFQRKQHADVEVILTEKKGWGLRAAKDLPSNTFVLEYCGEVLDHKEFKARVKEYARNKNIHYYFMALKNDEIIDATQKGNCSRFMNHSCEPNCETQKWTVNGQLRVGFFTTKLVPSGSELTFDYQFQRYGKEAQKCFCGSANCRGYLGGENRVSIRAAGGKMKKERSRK
As to the kind of experiment: Filter-paper methylation assay, SETD2. It is filed as biochemical.

For `Nc1ncnc2c1ncn2C1OC(CC(CCC(N)C(=O)O)NCc2ccccc2)C(O)C1O` (stereo not shown) [Compound 110], it took 500 nM to reach half-maximal inhibition (IC50).

The values are drawn from patent publication US9493501B2 (MEMORIAL SLOAN-KETTERING CANCER CENTER, priority 2011, dated 2016).
